In US10821115B2, “Compounds that inhibit Mcl-1 protein” (priority 2017, dated 2020):
Where two headings read alike, the source gives them in different places.

Tests used:
[1] = test system: human multiple myeloma cell line, OPM-2; assay: Cell viability assay (OPM-2 10 FBS), CellTiter-Glo; assay type: cell-based
In short: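 Cells were seeded at 3000 cells/well in RPMI 1640 with 10% FBS and exposed to serially diluted compounds for 16 h at 37 °C, 5% CO2.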

[2] = biological target: recombinant human Mcl-1 (residues 171-327) / Bim interaction (Homo sapiens (Human), UniProt Q07820); assay: biochemical; assay type: binding; details: read-out: Mcl-1 HTRF IC50
[3] = Homo sapiens, OPM-2, 16 h, read-out: OPM-2 10% FBS IC50 IP, OPM-2 cells, 10% FBS, 16 h, CellTiter-Glo
[4] = TR-FRET, Mcl-1(171-327) / biotin-Bim (51-76)
[5] = read-out: OPM-2 10% FBS IC50 IP, OPM-2 cells, 10% FBS, 16 h, CellTiter-Glo

recombinant human Mcl-1 (residues 171-327) / Bim interaction, sequence (Q07820 171-327): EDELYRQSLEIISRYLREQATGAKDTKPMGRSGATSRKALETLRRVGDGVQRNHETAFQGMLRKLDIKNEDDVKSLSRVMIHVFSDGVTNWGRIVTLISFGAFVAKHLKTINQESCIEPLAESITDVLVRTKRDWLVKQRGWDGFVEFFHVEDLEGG

Row | SMILES | IC50 [1, 3] [nM] | IC50 [2, 4] [nM] | IC50 [1, 5] [nM] | IC50 [2] [nM]
1 | CCOC(=O)COC[C@]1(OCC(=O)OCC)CCCC[C@@H](CC)S(=O)(=O)NC(=O)c2ccc3c(c2)N(C[C@@H]2CC[C@H]21)C[C@@]1(CCCc2cc(Cl)ccc21)CO3 [Example 100042, ethyl (((1S,3′R,6′R,7′S,12′R)-6-chloro-7′-(2-ethoxy-2-oxoethoxy)-12′-ethyl-13′,13′-dioxido-15′-oxo-3,4-dihydro-2H-spiro[naphthalene-1,22′-[20]oxa[13]thia[1,14]diazatetracyclo [14.7.2.0~3,6~.0~19,24~]pentacosa[16,18,24]trien]-7′-yl)methoxy)acetate] | 2220 | 4.86 |  | 
2 | CC[C@@H]1CCCC[C@@]2(COCC(=O)O2)[C@@H]2CC[C@H]2CN2C[C@@]3(CCCc4cc(Cl)ccc43)COc3ccc(cc32)C(=O)NS1(=O)=O [Example 100043, (2S,3′R,6′R,12′R,22′S)-6″-chloro-12′-ethyl-3″,4″-dihydro-2″H,6H,15′H-dispiro[1,4-dioxane-2,7′-[20]oxa[13]thia[1,14]diazatetracyclo [14.7.2.0~3,6~.0~19,24~]pentacosa[16,18,24]triene-22′,1″-naphthalene]-6,15′-dione 13′,13′-dioxide] | 7280 | 1.67 |  | 
3 | CC[C@@H]1CC/C=C/[C@](O)(C(F)(F)F)[C@@H]2CC[C@H]2CN2C[C@@]3(CCCc4cc(Cl)ccc43)COc3ccc(cc32)C(=O)NS1(=O)=O [Example 100044, (1S,3′R,6′R,7′R,8′E,12′R)-6-chloro-12′-ethyl-7′-hydroxy-7′-(trifluoromethyl)-3,4-dihydro-2H,15′H-spiro[naphthalene-1,22′-[20]oxa[13]thia[1,14]diazatetracyclo [14.7.2.0~3,6~.0~19,24~]pentacosa[8,16,18,24]tetraen]-15′-one 13′,13′-dioxide] |  | 31.1 | 7290 | 
4 | C[C@@H]1[C@@H](C)C/C=C/[C@@](O)(C(F)(F)F)[C@@H]2CC[C@H]2CN2C[C@@]3(CCCc4cc(Cl)ccc43)COc3ccc(cc32)C(=O)NS1(=O)=O [Example 100045, (1S,3′R,6′R,7′S,8′E,11′S,12′R)-6-chloro-7′-hydroxy-11′,12′-dimethyl-7′-(trifluoromethyl)-3,4-dihydro-2H,15′H-spiro[naphthalene-1,22′-[20]oxa[13]thia[1,14]diazatetracyclo [14.7.2.0~3,6~.0~19,24~]pentacosa[8,16,18,24]tetraen]-15′-one 13′,13′-dioxide] | 342 | 0.308 |  | 
5 | C[C@@H]1[C@@H](C)C/C=C/[C@](O)(C(F)(F)F)[C@@H]2CC[C@H]2CN2C[C@@]3(CCCc4cc(Cl)ccc43)COc3ccc(cc32)C(=O)NS1(=O)=O [Example 100046, (1S,3′R,6′R,7′R,8′E,11′S,12′R)-6-chloro-7′-hydroxy-11′,12′-dimethyl-7′-(trifluoromethyl)-3,4-dihydro-2H,15′H-spiro[naphthalene-1,22′-[20]oxa[13]thia[1,14]diazatetracyclo [14.7.2.0~3,6~.0~19,24~]pentacosa[8,16,18,24]tetraen]-15′-one 13′,13′-dioxide] | 976 | 3.76 |  | 
6 | CC[C@@H]1CC/C=C/[C@](O)(C(F)(F)F)[C@@H]2CC[C@H]2CN2C[C@@]3(CCCc4cc(Cl)ccc43)COc3ccc(cc32)C(=O)NS1(=O)=O [Example 100047, (1S,3′R,6′R,7′R,8′E,12′R)-6-chloro-12′-ethyl-7′-hydroxy-7′-(trifluoromethyl)-3,4-dihydro-2H,15′H-spiro[naphthalene-1,22′-[20]oxa[13]thia[1,14]diazatetracyclo [14.7.2.0~3,6~.0~19,24~]pentacosa[8,16,18,24]tetraen]-15′-one 13′,13′-dioxide] |  | 5.15 | 2540 | 
7 | C[C@@H]1[C@@H](C)CCC[C@](C)(O)[C@@H]2CC[C@H]2CN2C[C@@]3(CCCc4cc(Cl)ccc43)COc3ccc(cc32)C(=O)NS1(=O)=O [Example 100049, (1S,3′R,6′R,7′S,11′S,12′R)-6-chloro-7′-hydroxy-7′,11′,12′-trimethyl-3,4-dihydro-2H,15′H-spiro[naphthalene-1,22′-[20]oxa[13]thia[1,14]diazatetracyclo [14.7.2.0~3,6~.0~19,24~]pentacosa[16,18,24]trien]-15′-one 13′,13′-dioxide] | 2150 | 1.26 |  | 
8 | C[C@@H]1[C@@H](C)C/C=C/[C@@](O)(CC#N)[C@@H]2CC[C@H]2CN2C[C@@]3(CCCc4cc(Cl)ccc43)COc3ccc(cc32)C(=O)NS1(=O)=O [Example 100050, ((1S,3′R,6′R,7′S,8′E,11′S,12′R)-6-chloro-7′-hydroxy-11′,12′-dimethyl-13′,13′-dioxido-15′-oxo-3,4-dihydro-2H-spiro[naphthalene-1,22′-[20]oxa[13]thia[1,14]diazatetracyclo [14.7.2.0~3,6~.0~19,24~]pentacosa[8,16,18,24]tetraen]-7′-yl)acetonitrile] |  |  | 3820 | 1.28
9 | C[C@@H]1[C@@H](C)C/C=C/[C@@](O)(CC#N)[C@@H]2CC[C@H]2CN2C[C@@]3(CCCc4cc(Cl)ccc43)COc3ccc(cc32)C(=O)NS1(=O)=O [Example 100051, ((1S,3′R,6′R,7′S,8′E,11′S,12′R)-6-chloro-7′-hydroxy-11′,12′-dimethyl-13′,13′-dioxido-15′-oxo-3,4-dihydro-2H-spiro[naphthalene-1,22′-[20]oxa[13]thia[1,14]diazatetracyclo [14.7.2.0~3,6~.0~19,24~]pentacosa[8,16,18,24]tetraen]-7′-yl)acetonitrile] |  |  | 502 | 0.217
10 | C[C@@H]1[C@@H](C)CCC[C@@](O)(CO)[C@@H]2CC[C@H]2CN2C[C@@]3(CCCc4cc(Cl)ccc43)COc3ccc(cc32)C(=O)NS1(=O)=O [Example 100053, (1S,3′R,6′R,7′S,11′S,12′R)-6-chloro-7′-hydroxy-7′-(hydroxymethyl)-11′,12′-dimethyl-3,4-dihydro-2H,15′H-spiro[naphthalene-1,22′-[20]oxa[13]thia[1,14]diazatetracyclo [14.7.2.0~3,6~.0~19,24~]pentacosa[16,18,24]trien]-15′-one 13′,13′-dioxide] | 609 | 0.294 |  | 
11 | C[C@@H]1[C@@H](C)CCC[C@@]2(COC(=O)O2)[C@@H]2CC[C@H]2CN2C[C@@]3(CCCc4cc(Cl)ccc43)COc3ccc(cc32)C(=O)NS1(=O)=O [Example 100054, (3′R,4S,6′R,11′S,12′R,22′S)-6″-chloro-11′,12′-dimethyl-3″,4″-dihydro-2″H,15′H-dispiro[1,3-dioxolane-4,7′-[20]oxa[13]thia[1,14]diazatetracyclo [14.7.2.0~3,6~.0~19,24~]pentacosa[16,18,24]triene-22′,1″-naphthalene]-2,15′-dione 13′,13′-dioxide] | 9060 | 4.11 |  | 
12 | C[C@@H]1[C@@H](C)C[C@@H]2C=CC[C@](O)(C2)[C@@H]2CC[C@H]2CN2C[C@@]3(CCCc4cc(Cl)ccc43)COc3ccc(cc32)C(=O)NS1(=O)=O [Example 100056, (1S,3′R,6′R,7′S,11′S,13′S,14′R)-6-chloro-7′-hydroxy-13′,14′-dimethyl-3,4-dihydro-2H,17′H-spiro[naphthalene-1,24′-[22]oxa[15]thia[1,16]diazapentacyclo [16.7.2.1~7,11~.0~3,6~.0~21,26~]octacosa [9,18,20,26]tetraen]-17′-one 15′,15′-dioxide] | 1680 | 0.424 |  | 
13 | C[C@@H]1[C@@H](C)C[C@H]2C=CC[C@](O)(C2)[C@@H]2CC[C@H]2CN2C[C@@]3(CCCc4cc(Cl)ccc43)COc3ccc(cc32)C(=O)NS1(=O)=O [Example 100057, (1S,3′R,6′R,7′S,11′R,13′S,14′R)-6-chloro-7′-hydroxy-13′,14′-dimethyl-3,4-dihydro-2H,17′H-spiro[naphthalene-1,24′-[22]oxa[15]thia[1,16]diazapentacyclo [16.7.2.1~7,11~.0~3,6~.0~21,26~]octacosa [9,18,20,26]tetraen]-17′-one 15′,15′-dioxide] | 2600 | 0.568 |  | 
14 | C[C@@H]1[C@@H](C)C/C=C/[C@](O)(C(C)(C)C#N)[C@@H]2CC[C@H]2CN2C[C@@]3(CCCc4cc(Cl)ccc43)COc3ccc(cc32)C(=O)NS1(=O)=O [Example 100059, 2-((1S,3′R,6′R,7′R,8′E,11′S,12′R)-6-chloro-7′-hydroxy-11′,12′-dimethyl-13′,13′-dioxido-15′-oxo-3,4-dihydro-2H-spiro[naphthalene-1,22′-[20]oxa[13]thia[1,14]diazatetracyclo [14.7.2.0~3,6~.0~19,24~]pentacosa[8,16,18,24]tetraen]-7′-yl)-2-methylpropanenitrile] | 3450 | 11.9 |  | 
15 | C[C@@H]1[C@@H](C)C/C=C/[C@](O)(C(C)(C)C#N)[C@@H]2CC[C@H]2CN2C[C@@]3(CCCc4cc(Cl)ccc43)COc3ccc(cc32)C(=O)NS1(=O)=O [Example 100060, 2-((1S,3′R,6′R,7′R,8′E,11′S,12′R)-6-chloro-7′-hydroxy-11′,12′-dimethyl-13′,13′-dioxido-15′-oxo-3,4-dihydro-2H-spiro[naphthalene-1,22′-[20]oxa[13]thia[1,14]diazatetracyclo [14.7.2.0~3,6~.0~19,24~]pentacosa[8,16,18,24]tetraen]-7′-yl)-2-methylpropanenitrile] |  | 4.01 | 5980 | 
16 | COC(=O)[C@]1(O)/C=C/C[C@H](C)[C@@H](C)S(=O)(=O)NC(=O)c2ccc3c(c2)N(C[C@@H]2CC[C@H]21)C[C@@]1(CCCc2cc(Cl)ccc21)CO3 [Example 100061, methyl (1S,3′R,6′R,7′S,8′E,11′S,12′R)-6-chloro-7′-hydroxy-11′,12′-dimethyl-15′-oxo-3,4-dihydro-2H-spiro[naphthalene-1,22′-[20]oxa[13]thia[1,14]diazatetracyclo [14.7.2.0~3,6~.0~19,24~]pentacosa[8,16,18,24]tetraene]-7′-carboxylate 13′,13′-dioxide] | 529 | 0.78 |  | 
